Laboratory results as given in patent US7528138B2, “Pyrazolo[1,5-a]pyrimidines useful as inhibitors of protein kinases” (Vertex Pharmaceuticals Incorporated, priority 2004, dated 2009).
One block for each compound: values may come before it.

Tests used:
Type in all cases: biochemical
c-Met = c-Met (Homo sapiens, UniProt P08581); assay: c-Met Inhibition Assay, coupled enzyme system; conditions: enzyme inhibition data (Ki), Table 11
Method in brief: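 Pyruvate kinase/lactate dehydrogenase-coupled NADH assay in HEPES pH 7.5 with 80 nM c-Met, 200 μM ATP and 10 μM polyGluTyr at 30° C. Compound (0.006–12.5 μM final, 12-point) preincubated 10 min before ATP start; rates over 10 min gave Ki.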

Aurora-2 = molecular target: T1, Aurora-2 (Homo sapiens, UniProt O14965); assay: Aurora-A (Aurora-2) Inhibition Assay, coupled enzyme assay; conditions: enzyme inhibition data (Ki), Table 11; read-out: AurA Ki
T1 sequence (O14965 1-403): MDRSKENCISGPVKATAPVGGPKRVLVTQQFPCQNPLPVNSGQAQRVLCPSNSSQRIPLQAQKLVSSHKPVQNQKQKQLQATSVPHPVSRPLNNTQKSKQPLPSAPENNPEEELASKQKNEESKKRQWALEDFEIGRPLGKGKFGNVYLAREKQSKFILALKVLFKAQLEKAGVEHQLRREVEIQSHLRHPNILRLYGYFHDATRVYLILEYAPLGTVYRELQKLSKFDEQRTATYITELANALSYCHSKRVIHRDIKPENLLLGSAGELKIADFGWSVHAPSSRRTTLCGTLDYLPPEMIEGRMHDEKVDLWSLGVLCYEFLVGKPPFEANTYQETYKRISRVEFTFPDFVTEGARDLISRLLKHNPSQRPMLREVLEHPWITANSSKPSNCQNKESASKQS
Method: Compounds are screened for their ability to inhibit Aurora-2 using a standard coupled enzyme assay (Fox et al., Protein Sci., (1998) 7, 2249). Assays are carried out in a mixture of 100 mM Hepes (pH7.5), 10 mM MgCl2, 1 mM DTT, 25 mM NaCl, 2.5 mM phosphoenolpyruvate, 300 μM NADH, 30 μg/ml pyruvate kinase and 10 μg/ml lactate dehydrogenase. Final substrate concentrations in the assay are 400 μM ATP (Sigma Chemicals) and 570 μM peptide (Kemptide, American Peptide, Sunnyvale, Calif.). Assays are carried out at 30° C. and in the presence of 40 nM Aurora-2.
An assay stock buffer solution is prepared containing all of the reagents listed above, with the exception of Aurora-2 and the test compound of interest. 55 μl of the stock solution is placed in a 96 well plate followed by addition of 2 μl of DMSO stock containing serial dilutions of the test compound (typically starting from a final concentration of 7.5 μM). The plate is preincubated for 10 minutes at 30° C. and the reaction initiated by addition of 10 μl of Aurora-2. Initial reaction rates are determined with a Molecular Devices SpectraMax Plus plate reader over a 10 minute time course. IC50 and Ki data are calculated from non-linear regression analysis using the Prism software package (GraphPad Prism version 3.0cx for Macintosh, GraphPad Software, San Diego Calif., USA).

Itk = molecular target: T2, Itk (Homo sapiens, UniProt Q08881); assay: ITK Inhibition Assay (Radiometric), radioactive-phosphate incorporation; conditions: enzyme inhibition data (Ki), Table 11; radiometric or UV assay not stated
T2 sequence (Q08881 1-620): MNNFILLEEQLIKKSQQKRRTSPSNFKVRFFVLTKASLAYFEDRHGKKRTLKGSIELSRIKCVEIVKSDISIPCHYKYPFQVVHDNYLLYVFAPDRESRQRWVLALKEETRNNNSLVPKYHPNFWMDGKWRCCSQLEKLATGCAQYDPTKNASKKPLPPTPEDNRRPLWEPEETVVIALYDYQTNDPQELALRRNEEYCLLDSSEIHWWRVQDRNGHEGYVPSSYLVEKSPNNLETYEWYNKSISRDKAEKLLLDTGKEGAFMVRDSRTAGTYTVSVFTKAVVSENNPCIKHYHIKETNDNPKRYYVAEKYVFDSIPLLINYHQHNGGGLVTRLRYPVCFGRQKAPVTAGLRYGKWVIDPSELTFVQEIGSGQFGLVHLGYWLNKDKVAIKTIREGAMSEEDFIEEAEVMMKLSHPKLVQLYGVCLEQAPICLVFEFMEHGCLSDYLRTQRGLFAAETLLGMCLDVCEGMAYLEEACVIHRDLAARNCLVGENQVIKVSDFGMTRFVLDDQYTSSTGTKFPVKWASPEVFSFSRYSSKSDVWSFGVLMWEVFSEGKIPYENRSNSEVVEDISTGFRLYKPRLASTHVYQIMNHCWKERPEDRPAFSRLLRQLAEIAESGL
Method in brief: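 Radiometric 33P incorporation into SAM68 peptide (D332-443) with filter capture and scintillation counting; 10 min pre-incubation then 10 min reaction at 25° C. IC50 format: 30 nM Itk, 15 μM ATP, 2 μM peptide, HEPES pH 7.5. Ki(app) format: 50 nM Itk, 7.5 μM ATP, 3 μM peptide, MOPS pH 7.0.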

JAK3 = molecular target: T3, JAK3 (Homo sapiens, UniProt P52333); assay: JAK3 Inhibition Assay, 33P incorporation; conditions: enzyme inhibition data (Ki), Table 11
T3 sequence (P52333 1-1124): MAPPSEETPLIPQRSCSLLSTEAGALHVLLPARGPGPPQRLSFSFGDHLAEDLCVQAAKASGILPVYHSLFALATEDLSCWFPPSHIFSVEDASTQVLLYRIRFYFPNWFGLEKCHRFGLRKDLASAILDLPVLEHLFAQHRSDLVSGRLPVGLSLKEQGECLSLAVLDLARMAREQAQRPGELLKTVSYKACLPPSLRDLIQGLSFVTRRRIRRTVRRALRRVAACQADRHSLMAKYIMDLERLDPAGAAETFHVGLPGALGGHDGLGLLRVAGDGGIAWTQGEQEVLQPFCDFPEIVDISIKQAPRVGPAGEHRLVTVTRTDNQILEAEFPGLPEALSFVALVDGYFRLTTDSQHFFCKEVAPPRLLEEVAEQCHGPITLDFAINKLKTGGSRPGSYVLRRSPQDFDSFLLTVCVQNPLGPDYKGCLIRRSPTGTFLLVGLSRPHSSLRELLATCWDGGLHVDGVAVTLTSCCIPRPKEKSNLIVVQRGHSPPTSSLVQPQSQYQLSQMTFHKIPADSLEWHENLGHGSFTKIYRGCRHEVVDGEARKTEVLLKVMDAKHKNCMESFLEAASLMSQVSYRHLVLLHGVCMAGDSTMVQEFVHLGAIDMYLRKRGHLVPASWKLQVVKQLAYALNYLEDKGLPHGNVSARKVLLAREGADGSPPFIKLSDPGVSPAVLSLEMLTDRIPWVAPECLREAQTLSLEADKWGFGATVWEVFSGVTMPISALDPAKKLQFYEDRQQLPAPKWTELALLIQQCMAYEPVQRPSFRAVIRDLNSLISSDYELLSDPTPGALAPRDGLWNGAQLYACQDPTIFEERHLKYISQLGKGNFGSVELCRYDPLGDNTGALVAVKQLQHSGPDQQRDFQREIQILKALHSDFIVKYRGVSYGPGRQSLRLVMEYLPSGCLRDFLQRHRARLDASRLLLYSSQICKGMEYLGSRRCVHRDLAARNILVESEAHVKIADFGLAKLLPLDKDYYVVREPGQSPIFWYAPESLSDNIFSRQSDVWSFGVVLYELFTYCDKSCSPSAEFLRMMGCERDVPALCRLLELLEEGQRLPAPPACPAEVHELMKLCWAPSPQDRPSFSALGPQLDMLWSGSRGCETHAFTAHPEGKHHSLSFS
Method in brief: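 Recombinant JAK3 at 1 nM in HEPES pH 7.4 buffer with 10 mM MgCl2, 1 mM DTT and 0.01% BSA. Substrates were 5 μM ATP (200 uCi/μmole) and 1 μM poly(Glu)4Tyr, reacted 20 min at 25 °C. Stopped with TCA, and 33P incorporation counted on glass fiber filters.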

c-Met, sequence (P08581 25-1390): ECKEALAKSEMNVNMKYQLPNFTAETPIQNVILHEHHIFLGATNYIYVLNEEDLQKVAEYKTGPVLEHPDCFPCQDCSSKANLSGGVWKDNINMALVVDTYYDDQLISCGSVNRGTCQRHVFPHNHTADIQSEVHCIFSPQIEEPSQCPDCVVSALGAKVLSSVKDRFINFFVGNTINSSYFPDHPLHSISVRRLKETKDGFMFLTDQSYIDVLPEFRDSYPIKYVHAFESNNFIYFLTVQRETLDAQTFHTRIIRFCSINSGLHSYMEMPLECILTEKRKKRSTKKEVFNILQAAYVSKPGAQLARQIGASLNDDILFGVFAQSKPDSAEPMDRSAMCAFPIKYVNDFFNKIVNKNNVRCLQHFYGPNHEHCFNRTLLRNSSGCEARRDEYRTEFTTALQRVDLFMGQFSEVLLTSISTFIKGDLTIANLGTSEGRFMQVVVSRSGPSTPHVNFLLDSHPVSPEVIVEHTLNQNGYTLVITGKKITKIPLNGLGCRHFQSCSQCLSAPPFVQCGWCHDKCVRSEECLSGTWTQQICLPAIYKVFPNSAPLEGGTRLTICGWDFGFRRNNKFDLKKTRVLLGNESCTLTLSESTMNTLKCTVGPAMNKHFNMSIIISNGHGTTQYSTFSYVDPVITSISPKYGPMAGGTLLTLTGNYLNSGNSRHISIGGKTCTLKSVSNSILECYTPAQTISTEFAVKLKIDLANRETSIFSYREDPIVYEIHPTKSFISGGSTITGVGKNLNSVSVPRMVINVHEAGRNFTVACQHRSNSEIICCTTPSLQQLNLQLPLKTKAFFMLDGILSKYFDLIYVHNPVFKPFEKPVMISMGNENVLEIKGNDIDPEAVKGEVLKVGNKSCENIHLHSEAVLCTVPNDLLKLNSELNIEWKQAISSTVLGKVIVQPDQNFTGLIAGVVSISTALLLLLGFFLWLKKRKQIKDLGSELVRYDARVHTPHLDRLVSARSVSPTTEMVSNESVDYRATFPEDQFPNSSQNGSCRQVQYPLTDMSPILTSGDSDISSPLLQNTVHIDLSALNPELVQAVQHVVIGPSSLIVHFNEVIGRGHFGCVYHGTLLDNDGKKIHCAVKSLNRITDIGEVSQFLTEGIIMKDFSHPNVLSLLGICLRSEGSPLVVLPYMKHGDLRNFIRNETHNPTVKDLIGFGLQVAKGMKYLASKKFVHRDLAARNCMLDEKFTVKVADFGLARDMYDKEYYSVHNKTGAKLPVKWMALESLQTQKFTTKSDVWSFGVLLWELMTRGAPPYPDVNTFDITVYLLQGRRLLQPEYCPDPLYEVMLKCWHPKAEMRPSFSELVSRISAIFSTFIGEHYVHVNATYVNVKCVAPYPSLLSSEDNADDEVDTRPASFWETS

Compound: Nc1nn2cc(CCCN3CCOCC3)cnc2c1-c1ccccn1 [Compound V-313]
Ki (c-Met): 0.5 to 5 µM
Ki (Itk): 0.5 to 5 µM
Ki (JAK3): > 5 µM

Compound: Nc1nn2cc(-c3ccncn3)cnc2c1C(=O)N1CCC(O)C1 (centres unmarked) [Compound V-44]
Ki (c-Met): 0.5 to 5 µM
Ki (Itk): 0.5 to 5 µM
Ki (JAK3): > 5 µM

Compound: CC(C)N(CCCc1cnc2c(-c3ccccn3)c(N)nn2c1)C(C)C [Compound V-320]
Ki (c-Met): 0.5 to 5 µM
Ki (Itk): 0.5 to 5 µM
Ki (JAK3): > 5 µM

Compound: CN(CC1OCCO1)C(=O)c1cccc(-c2cnc3c(-c4ccccn4)c(N)nn3c2)n1 [Compound V-142]
Ki (c-Met): < 0.5 µM
Ki (Itk): 0.5 to 5 µM
Ki (JAK3): 0.5 to 5 µM

Compound: CN(CC1OCCO1)C(=O)c1ccc(-c2cnc3c(-c4ccccn4)c(N)nn3c2)nc1 [Compound V-95]
Ki (c-Met): < 0.5 µM
Ki (Itk): < 0.5 µM
Ki (JAK3): 0.5 to 5 µM

Compound: Nc1nn2cc(CCCNC3CCC3)cnc2c1-c1ccccn1 [Compound V-324]
Ki (c-Met): < 0.5 µM
Ki (Itk): 0.5 to 5 µM
Ki (JAK3): > 5 µM

Compound: Nc1nn2cc(-c3ccccn3)cnc2c1C(=O)NCc1ccc(Cl)c(Cl)c1 [Compound V-47]
Ki (c-Met): 0.5 to 5 µM
Ki (Itk): 0.5 to 5 µM
Ki (JAK3): > 5 µM

Compound: CN(C)CCN(Cc1ccccc1)C(=O)c1c(N)nn2cc(-c3ccncn3)cnc12 [Compound V-35]
Ki (c-Met): 0.5 to 5 µM
Ki (Itk): 0.5 to 5 µM
Ki (JAK3): > 5 µM

Compound: CN1CCC(N(C)C(=O)c2ccc(-c3cnc4c(-c5ccccn5)c(N)nn4c3)nc2)CC1 [Compound V-61]
Ki (c-Met): < 0.5 µM
Ki (Itk): < 0.5 µM
Ki (JAK3): 0.5 to 5 µM

Compound: Nc1nn2cc(-c3ccncn3)cnc2c1C(=O)N1CCCC1 [Compound V-45]
Ki (c-Met): 0.5 to 5 µM
Ki (Itk): 0.5 to 5 µM
Ki (JAK3): > 5 µM

Compound: Nc1nn2cc(CCCNC3CC3)cnc2c1-c1ccccn1 [Compound V-322]
Ki (c-Met): 0.5 to 5 µM
Ki (Itk): 0.5 to 5 µM
Ki (JAK3): > 5 µM

Compound: CCCCN(CCN)C(=O)c1cccc(-c2cnc3c(-c4ccccn4)c(N)nn3c2)n1 [Compound V-113]
Ki (c-Met): < 0.5 µM
Ki (Itk): < 0.5 µM
Ki (JAK3): 0.5 to 5 µM

Results, then the compound that gave them:

Ki (c-Met): < 0.5 µM
Ki (Aurora-2): < 0.5 µM
Ki (Itk): < 0.5 µM
Compound: Nc1nn2cc(-c3ccc(CN4CCCNCC4)cc3)cnc2c1-c1ccccn1 [Compound V-224]

Ki (c-Met): 0.5 to 5 µM
Ki (Itk): 0.5 to 5 µM
Ki (JAK3): > 5 µM
Compound: Nc1nn2cc(-c3cccnc3N3CCN(CCO)CC3)cnc2c1-c1ccccn1 [Compound V-266]

Ki (c-Met): 0.5 to 5 µM
Ki (Itk): 0.5 to 5 µM
Ki (JAK3): > 5 µM
Compound: Nc1nn2cc(CCc3ccccc3)cnc2c1-c1ccccn1 [Compound V-213]

Ki (c-Met): 0.5 to 5 µM
Ki (Itk): 0.5 to 5 µM
Ki (JAK3): > 5 µM
Compound: CN1CCN(c2ncccc2-c2cnc3c(-c4ccccn4)c(N)nn3c2)CC1 [Compound V-268]

Ki (c-Met): 0.5 to 5 µM
Ki (Itk): 0.5 to 5 µM
Ki (JAK3): > 5 µM
Compound: CCCCNC(=O)c1ccc(-c2cnc3c(-c4ccccn4)c(N)nn3c2)nc1 [Compound V-77]

Ki (c-Met): 0.5 to 5 µM
Ki (Itk): 0.5 to 5 µM
Ki (JAK3): > 5 µM
Compound: Nc1nn2cc(-c3ccccc3OC(F)F)cnc2c1-c1ccccn1 [Compound V-19]

Ki (c-Met): < 0.5 µM
Ki (Itk): 0.5 to 5 µM
Ki (JAK3): > 5 µM
Compound: Nc1nn2cc(-c3cccc(C(=O)N4CCC4)n3)cnc2c1-c1ccccn1 [Compound V-123]

Ki (c-Met): 0.5 to 5 µM
Ki (Itk): 0.5 to 5 µM
Ki (JAK3): > 5 µM
Compound: N#Cc1ccccc1-c1cnc2c(-c3ccccn3)c(N)nn2c1 [Compound V-10]

Ki (Aurora-2): < 0.5 µM
Ki (Itk): < 0.5 µM
Compound: CC(C)(C)OC(=O)NCc1ccc(-c2cnc3c(-c4ccccn4)c(N)nn3c2)cc1 [Compound V-192]

Ki (c-Met): 0.5 to 5 µM
Ki (Itk): 0.5 to 5 µM
Ki (JAK3): > 5 µM
Compound: CC(C)CN(C)c1ccc(-c2cnc3c(-c4ccccn4)c(N)nn3c2)cn1 [Compound V-172]

Ki (c-Met): 0.5 to 5 µM
Ki (Itk): 0.5 to 5 µM
Ki (JAK3): > 5 µM
Compound: Nc1nn2cc(-c3cccnc3N3CCCCC3)cnc2c1-c1ccccn1 [Compound V-259]

Ki (c-Met): 0.5 to 5 µM
Ki (Itk): 0.5 to 5 µM
Ki (JAK3): > 5 µM
Compound: Nc1nn2cc(-c3ccc(N4CCCCC4)nc3)cnc2c1-c1ccccn1 [Compound V-147]

Ki (c-Met): 0.5 to 5 µM
Ki (Itk): 0.5 to 5 µM
Ki (JAK3): > 5 µM
Compound: Nc1nn2cc(-c3cncnc3)cnc2c1-c1ccccn1 [Compound V-52]
